The subject of experiment [1] is PC12 cells. The experiment in a line: 6-OHDA-induced superoxide production, DHE staining. The format is cell-based, rat. The following applies: 6-OHDA with PACA 5, 10, 20 and 50 μM. As for the experimental part: After the treatment with 6-OHDA alone or in combination with PACA at different concentrations, PC12 cells were stained with a fluorescent probe dihydroethidium (DHE) for the production of superoxide anion (A & B) and another fluorescent probe DAF-FM Diacetate for the production of nitric oxide ([…]), respectively. (A) Representative images of DHE-stained cells. 6-OHDA, 200 μM; PACA, 50 (B) PACA inhibited 6-OHDA-induced formation of superoxide ions. PC12 cells were treated with 6-OHDA alone or in combination with PACA for 6 h and subsequently stained with a probe DHE. The images were captured under a fluorescence microscope. The fluorescence was determined by ImageJ software. (C) Representative images of DAF-FM DA-stained cells. 6-OHDA, 200 μM; PACA, 50 μM. (D) PACA inhibited 6-OHDA-induced NO production. PC12 cells were treated with 6-OHDA alone or in combination with PACA for 6 h and subsequently stained with a probe DAF-FM DA. The images were captured under a fluorescence microscope. The fluorescence was determined by ImageJ software.
PC12 cells were treated with 6-OHDA alone or in combination with PACA at the concentrations of 5, 10, 20 and 50 μM. At the end of treatment, PC12 cells were then stained with a fluorescent probe dihydroethidium (DHE) for the production of superoxide anion and another fluorescent probe DAF-FM Diacetate for the production of nitric oxide, respectively.

In experiment [2] the test system is PC12 cells. As to the kind of experiment: 6-OHDA-induced neurotoxicity in PC12 cells, MTT cell viability. The format is cell-based, rat. The following applies: 6-OHDA with or without PACA, 24 hours. As for the experimental part: Neurotoxin 6-hydroxydopamine (6-OHDA) is widely used to induce the cell model of human Parkinsonism. PC12 cells were treated with 6-OHDA with or without PACA for 24-hours, the cell viability was assessed by the colorimetric MTT assay. The relative cell viability was plotted against the concentrations of PACA. On the other hand, primary midbrain neurons were isolated from 17-day-old Sprague Dawley (SD) rat embryos. The midbrain neurons were treated with 6-OHDA with or without PACA for 12-hours, the cell viability was assessed by the colorimetric MTT assay. Alternatively, the neurons were stained with 5 μM of Hoechst 33342 and 1 μM of PI in the differentiation medium at 37° C. for 30 min. The images were captured on a Zeiss fluorescence microscope. (A) MTT assay of the cell viability in PC 12 cells. […] PI-positive and Hoechst 33342-stained neurons were counted under a fluorescence microscope. […]
Neurotoxin 6-hydroxydopamine (6-OHDA) is widely used to induce the cell model of human Parkinsonism. PC12 cells were treated with 6-OHDA with or without PACA for 24-hours, the cell viability was assessed by the colorimetric MTT assay. […] The midbrain neurons were treated with 6-OHDA with or without PACA for 12-hours, the cell viability was assessed by the colorimetric MTT assay. […] The images were captured on a Zeiss fluorescence microscope.

The target in experiment [3] is T1, Keap1 (Rattus norvegicus, UniProt P57790).
T1 construct: endogenous in cells; host or cells: PC12 (rat pheochromocytoma) cells
T1 sequence (P57790 whole entry): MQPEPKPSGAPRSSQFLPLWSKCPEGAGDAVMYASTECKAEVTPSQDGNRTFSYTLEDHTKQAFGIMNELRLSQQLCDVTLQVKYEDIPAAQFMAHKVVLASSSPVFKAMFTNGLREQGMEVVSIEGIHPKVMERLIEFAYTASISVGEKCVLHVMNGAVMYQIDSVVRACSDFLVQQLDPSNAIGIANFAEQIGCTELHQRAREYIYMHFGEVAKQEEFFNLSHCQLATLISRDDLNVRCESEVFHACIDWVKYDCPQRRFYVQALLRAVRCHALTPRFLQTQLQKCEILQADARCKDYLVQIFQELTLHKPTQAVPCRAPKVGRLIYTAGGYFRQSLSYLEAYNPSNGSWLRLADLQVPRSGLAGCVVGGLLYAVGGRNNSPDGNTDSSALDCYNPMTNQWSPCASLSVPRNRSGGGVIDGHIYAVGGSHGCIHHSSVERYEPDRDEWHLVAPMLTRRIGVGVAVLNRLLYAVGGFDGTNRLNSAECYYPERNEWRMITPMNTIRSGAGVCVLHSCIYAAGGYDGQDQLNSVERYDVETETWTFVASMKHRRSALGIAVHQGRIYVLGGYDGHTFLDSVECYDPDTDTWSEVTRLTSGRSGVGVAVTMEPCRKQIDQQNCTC
As to the kind of experiment: Identification of PACA-modified proteins by Click chemistry biotin tagging and affinity isolation. Type of experiment: cell-based. To be noted: 20 μM PACA, biotin tag by Click chemistry, Keap1 antibody pull-down. As for the experimental part: PACA directly modifies the proteins bearing free cysteine residues after oxidase-mediated oxidation into chemically reactive o-quinone. At the end of 24 hour incubation, a biotin tag was introduced to the proteins that were covalently modified by PACA. Following affinity isolation with anti-Keap1 antibody bead, streptavidin-horseradish peroxidase (HRP) detected Keap1 as the predominant PACA-modified protein with the apparent molecular size of ˜72 kDa. (A) Biotinylation of PACA-modified proteins by Click chemistry. Oxidase represents the enzymes that oxidize PACA to o-quinone, Protein-SH represents the protein bearing free cysteine residues. (B) Procedure for the isolation of PACA-modified proteins. (C) Western blotting analysis of PACA-modified proteins. PC12 cells were treated with PACA (20 μM) for 6 h. […] All protein fractions were resolved by SDS-PAGE and detected by streptavidin-HRP conjugate. […]
PACA is converted to the chemically reactive o-quinone intermediate by the intracellular oxidases after PACA got inside the cells. […] Following gel electrophoresis and Western blotting onto PVDF (polyvinylidene difluoride) membranes, HRP-streptavidin conjugate detected a predominant ˜70 kDa protein band (data not shown). Such protein band was also detected by keap1 antibody through a similar procedure. […] The blots were probed by HRP-conjugated streptavidin, and subsequently detected by chemiluminescence. […]

Each structure is given as a SMILES string.

Take `C#CCNC(=O)/C=C/c1ccc(O)c(O)c1` [PACA, (E)-3-(3,4-dihydroxyphenyl)-N-(prop-2-yn-1-yl)acrylamide]: the “6-OHDA-induced formation of superoxide ions” value in experiment [1] is reported as “significantly attenuated”. Moreover, in experiment [2], the “6-OHDA neurotoxicity in PC12 cells” value is “attenuated 6-hydroxydopamine (6-OHDA) neurotoxicity”. Further, in experiment [3], the “PACA-modified protein isolated from treated PC12 cells” value is reported as “kelch-like ECH-associated protein 1 (Keap1) was isolated as the predominant protein”.

These data come from patent publication US10259777B2, “(E)-3-(3,4-dihydroxyphenyl)-N-(prop-2-yn-1-yl)acrylamide for treatment of neurodegenerative diseases” (THE UNIVERSITY OF HONG KONG, priority 2015, dated 2019).
